Read-outs that look alike come from different tables or passages of the source. Ends that are not written are not given here.
B1: FcLoop-G2-OSK-G2 (protein)
chain: MDKTHTCPPCPAPELLGGPSVFLFPPKPKDTLMISRTPEVTCVVVDVSHEDPEVKFNWYVDGVEVHNAKTKPREEQYNSTYRVVSVLTVLHQDWLNGKEYKCKVSNKALPAPIEKTISKAKGQPREPQVYTLPPSRDELGGGVIINVKCKISRQCLEPCKKAGMRFGKCMNGKCHCTPKGGTKNQVSLTCLVKGFYPSDIAVEWESNGQPENNYKTTPPVLDSDGSFFLYSKLTVDKSRWQQGNVFSCSVMHEALHNHYTQKSLSLSPGK
B2: 20k PEG-L2-6H-L3-CH2-L10-OsK1(1-38) (conjugate)
chain: MGGHHHHHHGGGPSVFLFPPKPKDTLMISRTPEVTCVVVDVSHEDPEVKFNWYVDGVEVHNAKTKPREEQYNSTYRVVSVLTVLHQDWLNGKEYKCKVSNKALPAPIEKTISGGGGSGGGGSGVIINVKCKISRQCLEPCKKAGMRFGKCMNGKCHCTPK
B3: FcLoop-G4-OSK-G2 (protein)
chain: MDKTHTCPPCPAPELLGGPSVFLFPPKPKDTLMISRTPEVTCVVVDVSHEDPEVKFNWYVDGVEVHNAKTKPREEQYNSTYRVVSVLTVLHQDWLNGKEYKCKVSNKALPAPIEKTISKAKGQPREPQVYTLPPSRDELGGGGGVIINVKCKISRQCLEPCKKAGMRFGKCMNGKCHCTPKGGTKNQVSLTCLVKGFYPSDIAVEWESNGQPENNYKTTPPVLDSDGSFFLYSKLTVDKSRWQQGNVFSCSVMHEALHNHYTQKSLSLSPGK
B4: FcLoop-G2-ShK-G2 (protein)
chain: MDKTHTCPPCPAPELLGGPSVFLFPPKPKDTLMISRTPEVTCVVVDVSHEDPEVKFNWYVDGVEVHNAKTKPREEQYNSTYRVVSVLTVLHQDWLNGKEYKCKVSNKALPAPIEKTISKAKGQPREPQVYTLPPSRDELGGRSCIDTIPKSRCTAFQCKHSMKYRLSFCRKTCGTCGGTKNQVSLTCLVKGFYPSDIAVEWESNGQPENNYKTTPPVLDSDGSFFLYSKLTVDKSRWQQGNVFSCSVMHEALHNHYTQKSLSLSPGK

Assays:
[1] = tested on: thapsigargin-induced IL-2 production in human whole blood
[2] = tested on: thapsigargin-induced IFN-g production in human whole blood; type: cell-based

| Molecule | IC50 ([1]; read-out: Average IC50 IL-2) [nM] | IC50 ([2]; read-out: Average IC50 IFNg) [nM] | IC50 ([1]; read-out: WB/IL-2 (IC50)) [nM] | IC50 ([2]; read-out: WB/IFNg (IC50)) [nM] |
| --- | --- | --- | --- | --- |
| GVIINVKCKISRQCLEACKKAGMRFGKCMNGKCHCTPK [Ala-17 (SEQ ID No: 1414)] | 0.173 | 0.173 |  |  |
| GVIINVKCKISRQCLEPCAKAGMRFGKCMNGKCHCTPK [Ala-19 (SEQ ID No: 1415)] | 0.163 | 0.163 |  |  |
| GVIINVKCKISRQCLEPCKAAGMRFGKCMNGKCHCTPK [Ala-20 (SEQ ID No: 1416)] | 0.379 | 0.379 |  |  |
| GVIINVKCKISRQCLEPCKKAAMRFGKCMNGKCHCTPK [Ala-22 (SEQ ID No: 1418)] | 7.09 | 7.09 |  |  |
| GVIINVKCKISRQCLEPCKKAGARFGKCMNGKCHCTPK [Ala-23 (SEQ ID No: 1419)] | 0.275 | 0.275 |  |  |
| GVIINVKCKISRQCLEPCKKAGMRAGKCMNGKCHCTPK [Ala-25 (SEQ ID No: 1421)] | 3.08 | 3.08 |  |  |
| GVIINVKCKISRQCLEPCKKAGMRFGACMNGKCHCTPK [Ala-27 (SEQ ID No: 1423)] | 3.45 | 1.58 |  |  |
| GVIINVKCKISRQCLEPCKKAGMRFGKCANGKCHCTPK [Ala-29 (SEQ ID No: 1424)] | 0.447 | 0.292 |  |  |
| GVIINVKCKISRQCLEPCKKAGMRFGKCMAGKCHCTPK [Ala-30 (SEQ ID No: 1425)] | 0.971 | 0.637 |  |  |
| GVIINVKCKISRQCLEPCKKAGMRFGKCMNGKCACTPK [Ala-34 (SEQ ID No: 1428)] | 0.0725 | 0.0573 |  |  |
| R12A, E16K, K20D (GVIINVKCKISAQCLKPCKDAGMRFGKCMNGKCHCTPK) |  |  | 0.041 | 0.092 |
| des1, V2G, R12A, E16K, K19R, K20D, H34A (GIINVKCKISAQCLKPCRDAGMRFGKCMNGKCACTPK) |  |  | 1.5 | 2.24 |
| des1-7, E16K, K20D, des36-38 (CKISRQCLKPCKDAGMRFGKCMNGKCHC-NH2; ends and bridges not checked) |  |  | 8.18 | 8.34 |
| B1 |  |  | 0.028 | 0.056 |
| B2 |  |  | 8.32 | 50.1 |
| B3 |  |  | 0.15 | 0.195 |
| B4 |  |  | 0.109 | 0.119 |
